Values quoted from earlier work as cited in US20030049260A1, “Method of improving cognitive function” (priority 2001, published 2003).

Details: for Change in Symbol Digit: max. increase: duration 12 weeks, An J Geriatr Psychiatry 1999;7:221-227

CNCCC(Oc1ccc(C(F)(F)F)cc1)c1ccccc1 (stereo not drawn) [Fluoxetine]
Change in Symbol Digit: max. increase: 10% increase

CNC1(c2ccccc2Cl)CCCCC1=O (stereo not drawn) [Ketamine]
Change in Symbol Digit: decline (in vivo): 5-10% decline

CN[C@@H](C)Cc1ccccc1 [Methamphetamine]
Change in Symbol Digit: reduction in drug group as compared to a control group (in vivo): Significant 14%

CC(C)NCC(O)COc1cccc2ccccc12 (stereo not drawn) [Propranolol]
Change in Symbol Digit: decline as compared to placebo (duration 8 hours, Br. J. Clin Pharmac 1984;17:31-36): 10-15% decline

CN[C@H]1CC[C@@H](c2ccc(Cl)c(Cl)c2)c2ccccc21 [Sertraline]
Change in Symbol Digit: max. increase: 21% increase

Cc1nnc2n1-c1ccc(Cl)cc1C(c1ccccc1Cl)=NC2 [Triazolam]
Change in Symbol Digit: reduction (in vivo): 10-20% reduction
